From patent US9012611B2, “Use of 3,8,12,14, 17,20-oxo-substituted pregnene glycosides in the preparation of healthcare products, food additives and pharmaceuticals for the inhibition of appetite” (Institute of Materia Medica, Chinese Academy of Sciences, priority 2010, dated 2015)

Columns and labels:
[1] = system: female Wistar rat; assay: Animal test in vivo: average food consumption (appetite inhibition); settings: for Average food consumptions: positive control 15 mg/kg; for average food consumptions compared with the blank control group (in words): during the administration of the drugs, pure glycosides 50 mg/kg
Description: (§1) 6-7 weeks-old female Wistar rat (purchased from Shanghai Laboratory Animal Center of Chinese Academy of Sciences)(weight: 110-150 g) was raised alone in suspended metal cage. After the experimental rat was obtained, it was checked to make sure whether they were abnormal or had obvious disease signs. The rat can freely obtain the drinking-water and feed for rodent (RM1(E)AQC). The feeding cage was controlled to receive 12 h illumination (from 07:00 to 19:00) and to be in a dark environment for 12 h, and the room temperature and relative humidity were controlled to be 21±3° C. and 55±15% respectively and not to deviate the upper and lower limit. The rats were randomly divided into groups depending on the body weight according to random number table to make the average weight in each group are approximately equal. Before the test, the rats were pre-trained suitably for one week (from −7th day to −1st day) during which the consumptions of feed and drinking water were recorded.
(§2) Each group of drug to be tested, positive control group, and blank control group consisted of 5 rats, respectively. The tested drug and positive control drug were mixed with wheaten starch before the administration and formulated to suspension with required doses according to 10 mL/kg of administration volume. The positive control drug was sibutramine hydrochloride and the administration dosage was 15 mg/kg body weight. In the blank control group, only equal amount of starch was used to formulate suspension for administration by […] in a same volume. The administration time is the 1st day, 2nd day and 3rd day. The body weight of the rat, the consumption of the feed (the weight of the feeding hopper) and consumption of the drinking water (bottle weight) were recorded from the −7th day to the 7th day.

[2] = Animal test in vivo: average body weight; parameters: species or system rat; settings: for Average body weight: positive control 15 mg/kg; for body weight compared with the blank control group (in words): during the administration of the drugs, pure glycosides 50 mg/kg
Description: as §1, §2

CO[C@H]1C[C@H](O[C@H]2[C@@H](OC)C[C@H](O[C@H]3CC[C@@]4(C)C(=CC[C@]5(O)[C@@H]4C[C@@H](OC(=O)/C=C(\C)C(C)C)[C@@]4(C)[C@]5(O)CC[C@@]4(O)C(C)=O)C3)O[C@@H]2C)O[C@@H](C)[C@H]1O[C@H]1C[C@H](OC)[C@H](O[C@H]2C[C@@H](OC)[C@@H](O[C@@H]3O[C@H](CO)[C@@H](O)[C@H](O)[C@H]3O)[C@H](C)O2)[C@@H](C)O1 [Wilfoside C1G, wilfoside C1G]
Average food consumptions ([1]; 1st day (administration day), Table 1, crude extract 300 mg/kg, others 50 mg/kg): 14.4 g | Average food consumptions ([1]; 2nd day (administration day), Table 1, crude extract 300 mg/kg, others 50 mg/kg): 12.4 g | Average food consumptions ([1]; 3rd day (administration day), Table 1, crude extract 300 mg/kg, others 50 mg/kg): 14.4 g | Average food consumptions ([1]; 4th day (after administration on days 1-3), Table 1, crude extract 300 mg/kg, others 50 mg/kg): 14.8 g | Average food consumptions ([1]; 5th day (after administration on days 1-3), Table 1, crude extract 300 mg/kg, others 50 mg/kg): 17.6 g | Average food consumptions ([1]; 6th day (after administration on days 1-3), Table 1, crude extract 300 mg/kg, others 50 mg/kg): 12.4 g | Average food consumptions ([1]; 7th day (after administration on days 1-3), Table 1, crude extract 300 mg/kg, others 50 mg/kg): 15.2 g | average food consumptions compared with the blank control group (in words) ([1]; crude extract 300 mg/kg): no great differences | Average food consumptions ([1]; −1st day (before administration), Table 1, crude extract 300 mg/kg, others 50 mg/kg): 14 g | Average food consumptions ([1]; −2nd day (before administration), Table 1, crude extract 300 mg/kg, others 50 mg/kg): 13.6 g | Average food consumptions ([1]; −3rd day (before administration), Table 1, crude extract 300 mg/kg, others 50 mg/kg): 14.8 g | Average food consumptions ([1]; −4th day (before administration), Table 1, crude extract 300 mg/kg, others 50 mg/kg): 15.2 g | Average food consumptions ([1]; −5th day (before administration), Table 1, crude extract 300 mg/kg, others 50 mg/kg): 13.6 g | Average food consumptions ([1]; −6th day (before administration), Table 1, crude extract 300 mg/kg, others 50 mg/kg): 13.6 g | Average food consumptions ([1]; −7th day (before administration), Table 1, crude extract 300 mg/kg, others 50 mg/kg): 13.6 g | Average body weight ([2]; 1st day (administration day), Table 3, crude extract 300 mg/kg, others 50 mg/kg): 163.6 g | Average body weight ([2]; 2nd day (administration day), Table 3, crude extract 300 mg/kg, others 50 mg/kg): 163.2 g | Average body weight ([2]; 3rd day (administration day), Table 3, crude extract 300 mg/kg, others 50 mg/kg): 165.2 g | Average body weight ([2]; 4th day (after administration on days 1-3), Table 3, crude extract 300 mg/kg, others 50 mg/kg): 166.4 g | Average body weight ([2]; 5th day (after administration on days 1-3), Table 3, crude extract 300 mg/kg, others 50 mg/kg): 170.4 g | Average body weight ([2]; 6th day (after administration on days 1-3), Table 3, crude extract 300 mg/kg, others 50 mg/kg): 169.6 g | Average body weight ([2]; 7th day (after administration on days 1-3), Table 3, crude extract 300 mg/kg, others 50 mg/kg): 174.4 g | body weight compared with the blank control group (in words) ([2]; crude extract 300 mg/kg): no great differences | Average body weight ([2]; −1st day (before administration), Table 3, crude extract 300 mg/kg, others 50 mg/kg): 162.8 g | Average body weight ([2]; −2nd day (before administration), Table 3, crude extract 300 mg/kg, others 50 mg/kg): 157.6 g | Average body weight ([2]; −3rd day (before administration), Table 3, crude extract 300 mg/kg, others 50 mg/kg): 155.6 g | Average body weight ([2]; −4th day (before administration), Table 3, crude extract 300 mg/kg, others 50 mg/kg): 153.2 g | Average body weight ([2]; −5th day (before administration), Table 3, crude extract 300 mg/kg, others 50 mg/kg): 151.2 g | Average body weight ([2]; −6th day (before administration), Table 3, crude extract 300 mg/kg, others 50 mg/kg): 147.6 g | Average body weight ([2]; −7th day (before administration), Table 3, crude extract 300 mg/kg, others 50 mg/kg): 145.6 g

CO[C@H]1C[C@H](O[C@H]2[C@@H](OC)C[C@H](O[C@H]3CC[C@@]4(C)C(=CC[C@]5(O)[C@@H]4C[C@@H](OC(=O)/C=C(\C)C(C)C)[C@@]4(C)[C@]5(O)CC[C@@]4(O)C(C)=O)C3)O[C@@H]2C)O[C@@H](C)[C@H]1O[C@H]1C[C@H](OC)[C@H](O[C@H]2C[C@@H](OC)[C@@H](O)[C@H](C)O2)[C@@H](C)O1 [Wilfoside C1N, wilfoside C1N]
Average food consumptions ([1]; 1st day (administration day), Table 4, wilfosides 50 mg/kg): 11.6 g | Average food consumptions ([1]; 2nd day (administration day), Table 4, wilfosides 50 mg/kg): 8.8 g | Average food consumptions ([1]; 3rd day (administration day), Table 4, wilfosides 50 mg/kg): 3.6 g | Average food consumptions ([1]; 4th day (after administration on days 1-3), Table 4, wilfosides 50 mg/kg): 11.6 g | Average food consumptions ([1]; 5th day (after administration on days 1-3), Table 4, wilfosides 50 mg/kg): 15.6 g | Average food consumptions ([1]; 6th day (after administration on days 1-3), Table 4, wilfosides 50 mg/kg): 13.6 g | Average food consumptions ([1]; 7th day (after administration on days 1-3), Table 4, wilfosides 50 mg/kg): 15.6 g | average food consumptions compared with the blank control group (in words) ([1]; crude extract 300 mg/kg): greatly different from those in the blank group | Average food consumptions ([1]; −1st day (before administration), Table 4, wilfosides 50 mg/kg): 13.6 g | Average food consumptions ([1]; −2nd day (before administration), Table 4, wilfosides 50 mg/kg): 14 g | Average food consumptions ([1]; −3rd day (before administration), Table 4, wilfosides 50 mg/kg): 13.2 g | Average food consumptions ([1]; −4th day (before administration), Table 4, wilfosides 50 mg/kg): 13.2 g | Average food consumptions ([1]; −5th day (before administration), Table 4, wilfosides 50 mg/kg): 14.8 g | Average food consumptions ([1]; −6th day (before administration), Table 4, wilfosides 50 mg/kg): 10.8 g | Average food consumptions ([1]; −7th day (before administration), Table 4, wilfosides 50 mg/kg): 8.4 g | Average body weight ([2]; 1st day (administration day), Table 6, wilfosides 50 mg/kg): 152 g | Average body weight ([2]; 2nd day (administration day), Table 6, wilfosides 50 mg/kg): 146.8 g | Average body weight ([2]; 3rd day (administration day), Table 6, wilfosides 50 mg/kg): 141.6 g | Average body weight ([2]; 4th day (after administration on days 1-3), Table 6, wilfosides 50 mg/kg): 149.2 g | Average body weight ([2]; 5th day (after administration on days 1-3), Table 6, wilfosides 50 mg/kg): 154 g | Average body weight ([2]; 6th day (after administration on days 1-3), Table 6, wilfosides 50 mg/kg): 155.2 g | Average body weight ([2]; 7th day (after administration on days 1-3), Table 6, wilfosides 50 mg/kg): 157.2 g | body weight compared with the blank control group (in words) ([2]; crude extract 300 mg/kg): no great differences | Average body weight ([2]; −1st day (before administration), Table 6, wilfosides 50 mg/kg): 154 g | Average body weight ([2]; −2nd day (before administration), Table 6, wilfosides 50 mg/kg): 151.4 g | Average body weight ([2]; −3rd day (before administration), Table 6, wilfosides 50 mg/kg): 148.4 g | Average body weight ([2]; −4th day (before administration), Table 6, wilfosides 50 mg/kg): 146.8 g | Average body weight ([2]; −5th day (before administration), Table 6, wilfosides 50 mg/kg): 144.4 g | Average body weight ([2]; −6th day (before administration), Table 6, wilfosides 50 mg/kg): 142 g | Average body weight ([2]; −7th day (before administration), Table 6, wilfosides 50 mg/kg): 140.6 g
